Usually melting point stands for the temperature, or range, at which the solid turns liquid.

Some results are limits rather than exact numbers.

`O=c1c2c(CCc3ccc([N+](=O)[O-])cc3)n[nH]c2c2cccnc2n1-c1ccccc1` (hydrate or solvate) [Example 11, 3-[2-(4-nitrophenyl)ethyl]-5-phenyl-1H-pyrazolo[4,3-c][1,8]naphthyridin-4 (5H)-one]: the melting point lay in the range of 260 to 262 °C.

Take `O=c1c2c(CCc3cccc([N+](=O)[O-])c3)n[nH]c2c2cccnc2n1-c1ccccc1` (hydrate or solvate) [Example 15, 3-[2-(3-nitrophenyl)ethyl]-5-phenyl-1H-pyrazolo[4,3-c][1,8]naphthyridin-4 (5H)-one]: the melting point fell in the range of 245 to 247 °C.

`O=c1c2c(CCc3ccccc3[N+](=O)[O-])n[nH]c2c2cccnc2n1-c1ccccc1` (hydrate or solvate) [Example 16, 3-[2-(2-nitrophenyl)ethyl]-5-phenyl-1H-pyrazolo[4,3-c][1,8]naphthyridin-4 (5H)-one]: the melting point fell in the range of 333 to 335 °C.

As to `N#Cc1ccccc1CCc1n[nH]c2c1c(=O)n(-c1ccccc1)c1ncccc21` (hydrate or solvate) [Example 17, 3-[2-(2-cyanophenyl)ethyl]-5-phenyl-1H-pyrazolo[4,3-c][1,8]naphthyridin-4 (5H)-one], the melting point was in the range of 315.5 to 316.5 °C.

For the molecule `N#Cc1cccc(CCc2n[nH]c3c2c(=O)n(-c2ccccc2)c2ncccc32)c1` (hydrate or solvate) [Example 18, 3-[2-(3-cyanophenyl)ethyl]-5-phenyl-1H-pyrazolo[4,3-c][1,8]naphthyridin-4 (5H)-one], the melting point fell in the range of 219.5 to 224.5 °C.

In turn, `COc1cccc(Cc2n[nH]c3c2c(=O)n(-c2ccccc2)c2ncccc32)c1` (hydrate or solvate) [Example 20, 3-(3-methoxybenzyl)-5-phenyl-1H-pyrazolo[4,3-c][1,8]naphthyridin-4 (5H)-one] came in with a melting point of 234 to 236 °C.

`O=c1c2c(Cc3cccc([N+](=O)[O-])c3)n[nH]c2c2cccnc2n1-c1ccccc1` (hydrate or solvate) [Example 25, 3-(3-nitrobenzyl)-5-phenyl-1H-pyrazolo[4,3-c][1,8]naphthyridin-4 (5H)-one] showed a melting point greater than 320 °C.

Molecule `COc1ccc(Cc2n[nH]c3c2c(=O)n(-c2ccccc2)c2ncccc32)cc1OC` (hydrate or solvate) [Example 28, 3-(3,4-dimethoxybenzyl)-5-phenyl-1H-pyrazolo[4,3-c][1,8]naphthyridin-4 (5H)-one] had a melting point of 230 to 232 °C.

Molecule `COc1cc(Cc2n[nH]c3c2c(=O)n(-c2ccccc2)c2ncccc32)cc(OC)c1` (hydrate or solvate) [Example 29, 3-(3,5-dimethoxybenzyl)-5-phenyl-1H-pyrazolo[4,3-c][1,8]naphthyridin-4 (5H)-one] showed a melting point of 258 to 259 °C.

Take `N#Cc1ccc(Cc2n[nH]c3c2c(=O)n(-c2ccccc2)c2ncccc32)cc1` (hydrate or solvate) [Example 31, 3-(4-cyanobenzyl)-5-phenyl-1H-pyrazolo[4,3-c][1,8]naphthyridin-4 (5H)-one]: the melting point was 316 to 318 °C (dec.).

On to `CS(=O)(=O)c1ccc(Cc2n[nH]c3c2c(=O)n(-c2ccccc2)c2ncccc32)cc1` (hydrate or solvate) [Example 34, 3-(4-methylsulfonylbenzyl)-5-phenyl-1H-pyrazolo[4,3-c][1,8]naphthyridin-4 (5H)-one], for which the melting point fell in the range of 311.5 to 312.5 °C.

Turning to `O=C(O)c1ccccc1CCc1n[nH]c2c1c(=O)n(-c1ccccc1)c1ncccc21` (hydrate or solvate) [Example 37, 3-[2-(2-carboxyphenyl)ethyl]-5-phenyl-1H-pyrazolo[4,3-c][1,8]naphthyridin-4 (5H)-one], the melting point fell in the range of 302 to 308 °C.

Take `Nc1ccc(CCc2n[nH]c3c2c(=O)n(-c2ccccc2)c2ncccc32)cc1` (hydrate or solvate) [Example No. 13, 3-[2-(4-aminophenyl)ethyl]-5-phenyl-1H-pyrazolo[4,3-c][1,8]naphthyridin-4 (5H)-one]: the melting point is greater than 310 °C.

`O=C(O)c1ccc(CCc2n[nH]c3c2c(=O)n(-c2ccccc2)c2ncccc32)cc1` (hydrate or solvate) [Example No. 14, 3-[2-(4-carboxyphenyl)ethyl]-5-phenyl-1H-pyrazolo[4,3-c][1,8]naphthyridin-4 (5H)-one] registered a melting point of 318 to 320 °C.

For `COc1ccc(Cc2n[nH]c3c2c(=O)n(-c2ccccc2)c2ncccc32)cc1` (hydrate or solvate) [Example No. 21, 3-(4-methoxybenzyl)-5-phenyl-1H-pyrazolo[4,3-c][1,8]naphthyridin-4 (5H)-one], the melting point lay within 300 to 302 °C.

`COc1ccccc1Cc1n[nH]c2c1c(=O)n(-c1ccccc1)c1ncccc21` (hydrate or solvate) [Example No. 22, 3-(2-methoxybenzyl)-5-phenyl-1H-pyrazolo[4,3-c][1,8]naphthyridin-4 (5H)-one] came in with a melting point of 276 to 277 °C.

For `O=c1c2c(Cc3cccs3)n[nH]c2c2cccnc2n1-c1ccccc1` (hydrate or solvate) [Example No. 23, 3-(2-thienylmethyl)-5-phenyl-1H-pyrazolo[4,3-c][1,8]naphthyridin-4 (5H)-one], the melting point fell in the range of 282 to 284 °C.

Take `O=c1c2c(Cc3ccccc3[N+](=O)[O-])n[nH]c2c2cccnc2n1-c1ccccc1` (hydrate or solvate) [Example No. 26, 3-(2-nitrobenzyl)-5-phenyl-1H-pyrazolo[4,3-c][1,8]naphthyridin-4 (5H)-one]: the melting point was 318 to 320 °C (dec.).

As for `COc1ccc(OC)c(Cc2n[nH]c3c2c(=O)n(-c2ccccc2)c2ncccc32)c1` (hydrate or solvate) [Example No. 27, 3-(2,5-dimethoxybenzyl)-5-phenyl-1H-pyrazolo[4,3-c][1,8]naphthyridin-4 (5H)-one], the melting point was 248 to 250 °C.

In turn, `COc1ccc(Cc2n[nH]c3c2c(=O)n(-c2ccccc2)c2ncccc32)c(OC)c1` (hydrate or solvate) [Example No. 30, 3-(2,4-dimethoxybenzyl)-5-phenyl-1H-pyrazolo[4,3-c][1,8]naphthyridin-4 (5H)-one] returned a melting point of 266 to 267 °C.

Consider `CCOC(=O)Cc1ccc(Cc2n[nH]c3c2c(=O)n(-c2ccccc2)c2ncccc32)cc1` (hydrate or solvate) [Example No. 32, 3-(4-ethoxycarbonylmethylbenzyl)-5-phenyl-1H-pyrazolo[4,3-c][1,8]naphthyridin-4 (5H)-one], for which the melting point lay in the range of 263 to 264 °C.

`O=c1c2c(CCc3ccncc3)n[nH]c2c2cccnc2n1-c1ccccc1` [Example 1, 5-phenyl-3-[2-(pyridin-4-yl)ethyl]-1H-pyrazolo[4,3-c][1,8]-naphthyridin-4 (5H)-one] registered a melting point of 267 to 269 °C.

Take `O=c1c2c(CCc3cccnc3)n[nH]c2c2cccnc2n1-c1ccccc1` [Example 3, 5-phenyl-3-[2-(pyridin-3-yl)ethyl]-1H-pyrazolo[4,3-c][1,8]-naphthyridin-4 (5H)-one]: the melting point was 322 °C (dec.).

As to `O=c1c2c(Cc3cccnc3)n[nH]c2c2cccnc2n1-c1ccccc1` [Example 4, 5-phenyl-3-(pyridin-3-yl)methyl-1H-pyrazolo[4,3-c][1,8]-naphthyridin-4 (5H)-one], the melting point was 306 °C (dec.).
